The text below walks through data of patent publication US7388017B2, “Inhibitors of serine proteases, particularly hepatitis C virus NS3 protease” (Vertex Pharmaceuticals Incorporated, priority 1996, dated 2008).

This test addresses T1, HCV NS3 protease (Hepatitis C virus genotype 1a, UniProt P27958).
T1 construct: more particularly HCV NS3 proteases
The test is described as follows: Enzyme inhibition of HCV NS3 serine protease (cleavage of peptide substrate / EDVV AbuC-p-nitroanilide, with or without NS4A). In kind it is biochemical. As to the method:
Cleavage reactions were quenched by the addition of an equal volume of a mixture of 10% TFA:acetonitrile (1:1) and activity was assessed on a reversed phase HPLC column (Rainin C18 Microsorb-MV, […], 4.6×250 mm; 0-50% acetonitrile, 0.1% TFA@ 3.33% min) using a Hewlett Packard 1050 instrument with auto-injection and diode array detection at 210 nm and 280 nm (where appropriate). Peptide elution fragments were collected and identified by mass spectrometry and N-terminal sequence analysis. Fragment identity and concentration was further verified by authentic, synthesized products. Initial rates of cleavage were determined at <20% substrate conversion and catalytic parameters were determined assuming Michaelis-Menten kinetics using the MultiFit program (Day Computing, Cambridge, Mass.).
Spectrophotometric assays were run in a 96-well microtiter plate at 30 C, using a SpectraMax 250 reader (Molecular Devices, Sunnyvale, Calif.) with kinetic capability. Cleavage of EDVV AbuC-p-nitroanilide (5A-pNA) substrate was performed with or without […] in the same buffer used for HPLC assays at 30 C, and pNA release was monitored at 405 nm. The extinction-coefficient of p-nitroaniline is independent of pH at values of 5.5. and above [Tuppy, H., et al., Hoppe-Seyler's Z. Physiol. Chem., 329, pp. 278-288 (1962)]; Raybuck and Luong, unpublished observations).
Kinetic constants for the rapid equilibrium ordered bisubstrate reaction were determined from rate vs [4A], [EDVV AbuC-pNA] data by non-linear least squares fitting to equation 1 [Morrison, J. F. Biochim. Biophys. Acta, 185, pp. 269-286 (1969)] as described in the text. Kii and Kis values for peptidyl inhibitors were determined from rate vs [inhibitor], [substrate] data and fitting to the equation for mixed inhibition: rate=Vmax[S]/{Km(1+[I]/Kis)+[S](1+[I]/Kii)} The commercial program KinetAsyst (StateCollege, Pa.) was used for both procedures. Ki values were calculated from rate vs [inhibitor] plots by a nonlinear least squares fit of the data to the equation of Morrison for tight binding competitive inhibition [Morrison, J. F. Biochim. Biophys. Acta, 185, pp. 269-286 (1969)]. The KineTic program (BioKin Ltd) was used for this procedure.
Ki values are expressed in μM. Category “A” indicates <1 μM inhibition; category “B” indicates 1-100 μM inhibition; category “C” indicates >100 μM.

The mark [1] stands for this setting: Enzyme inhibition data, Ki from rate vs [inhibitor] plots, Morrison tight binding competitive inhibition fit, 30 C, pH 7.8, read-out: Ki.

SMILES strings stand for the structures. Read-outs that look alike come from different tables or passages of the source. Starred links: 1 amine or outer side, 2 acyl side, 3 side chain; linkers in the order of their positions; H or OH if unused. Non-standard residues stand in square brackets, D forms with d. Residues, ends and D or L forms follow the SMILES beside them. ξ: configuration not given here. *: point of attachment. ξ(3-Amino-2-oxopentanoyl) = CCC(N[*:1])C(=O)C(=O)[*:2]; Acetyl(3-pyridyl) = O=C(Cc1cccnc1)*; X41 = CCC(N*)C(=O)c1nc2ccccc2o1; NH(4-picolyl) = c1cc(CN*)ccn1; Hyp = O=C(O)[CH]1C[CH](O)CN1; NHPhenethyl = c1ccc(CCN*)cc1; Nicotinoyl = O=C(c1cccnc1)*; X44 = O=C(c1ccc2cnccc2n1)*; Morpholide = C1CN(*)CCO1; Abu = CC[CH](N)C(=O)O; X8 = O=C(CCN1CCCCC1)*; NHBn = c1ccc(CN*)cc1; Glycolyl = O=C(CO)*; X13 = COc1ccccc1CN*; X16 = C1COC(CN*)C1; Bn = c1ccc(C*)cc1; X37 = COCC(C)N*; NHPr = CCCN*

T1 sequence (P27958 1027-1208): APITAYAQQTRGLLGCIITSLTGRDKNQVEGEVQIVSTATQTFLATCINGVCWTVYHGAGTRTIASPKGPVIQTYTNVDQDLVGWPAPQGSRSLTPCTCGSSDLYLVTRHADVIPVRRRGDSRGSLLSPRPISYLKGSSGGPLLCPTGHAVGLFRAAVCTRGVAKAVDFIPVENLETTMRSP

For the molecule `CCC(NC(=O)C1CC(OCc2ccc(Cl)c(Cl)c2)CN1C(=O)C(NC(=O)C(NC(=O)c1cnccn1)C(C)C)C(C)C)P(=O)(Oc1ccccc1)Oc1ccccc1` (centres unmarked) [Compound 71], the Ki (commonly the equilibrium dissociation constant of an inhibitor or competing ligand from its target) was less than 1 µM.
The same measure, in the same setting: next, `CCC(NC(=O)C1CC(OCc2ccc3ccccc3c2)CN1C(=O)C(NC(=O)C(NC(=O)c1cnccn1)C(C)C)C(C)C)P(=O)(Oc1ccccc1)Oc1ccccc1` (centres unmarked) [Compound 72]: 1 to 100 µM; `CCC(NC(=O)C1CC(OCc2ccccc2)CN1C(=O)C(NC(=O)C(NC(=O)c1cnccn1)C(C)C)C(C)C)P(=O)(Oc1ccccc1)Oc1ccccc1` (centres unmarked) [Compound 73]: 1 to 100 µM.
With `CCC(NC(=O)C1CC(OCc2ccccc2)CN1C(=O)C(NC(=O)C(NC(=O)c1cnccn1)C(C)C)C(C)C)C(=O)C(F)(F)C(F)(F)F` (centres unmarked) [Compound 75], under setting [1], the inhibition constant Ki was in the range of 1 to 100 µM.
`CCOC(=O)C(F)(F)C(=O)C(CC)NC(=O)C1CC(OCc2ccccc2)CN1C(=O)C(NC(=O)C(NC(=O)c1cnccn1)C(C)C)C(C)C` (centres unmarked) [Compound 76]: the Ki under setting [1] was more than 100 µM.
Still for that read-out and setting: next, `CCOP(=O)(OCC)C(CC)NC(=O)C1CC(OCc2ccccc2)CN1C(=O)C(NC(=O)C(NC(=O)c1cnccn1)C(C)C)C(C)C` (centres unmarked) [Compound 77]: more than 100 µM; `CCC(NC(=O)C1CC(OCc2ccccc2)CN1C(=O)C(NC(=O)C(NC(=O)c1cnccn1)C(C)C)C(C)C)C(=O)C(=O)CCc1ccccc1` (centres unmarked) [Compound 78]: 1 to 100 µM; `CCC(NC(=O)C1CC(OCc2ccccc2)CN1C(=O)C(NC(=O)C(NC(=O)c1cnccn1)C(C)C)C(C)C)C(=O)C(=O)NCCc1ccccc1` (centres unmarked) [Compound 79]: 1 to 100 µM.
Still for that read-out and setting: with `CCC(C=O)NC(=O)C1CC(OCc2ccccc2)CN1C(=O)C(NC(=O)C(NC(C)=O)C(C)C)C(C)C` (centres unmarked) [Compound 81] (Ac-VV[Hyp](Bn)[Abu]-aldehyde; configuration not given here) the figure was 1 to 100 µM.
For `CCC(C=O)NC(=O)C1CC(OCc2ccccc2)CN1C(=O)C(NC(=O)C(NC(=O)CO)C(C)C)C(C)C` (centres unmarked) [Compound 82] (Glycolyl-VV[Hyp](Bn)[Abu]-aldehyde; configuration not given here), the inhibitory constant (Ki) under setting [1] lay in the range of 1 to 100 µM.
Still for that read-out and setting: with `CCC(C=O)NC(=O)C(CC(C)C)NC(=O)C(NC(=O)C(NC(=O)c1ccc2cnccc2n1)C(C)C)C(C)C` (centres unmarked) [Compound 89] (X44-VVL[Abu]-aldehyde; configuration not given here) the figure was 1 to 100 µM.
Same read-out and setting: next, `CCC(C=O)NC(=O)C(CC(C)C)NC(=O)C(NC(=O)C(NC(=O)c1cccnc1)C(C)C)C(C)C` (centres unmarked) [Compound 94] (Nicotinoyl-VVL[Abu]-aldehyde; configuration not given here): 1 to 100 µM; `CCC(C=O)NC(=O)C(CC(C)C)NC(=O)C(NC(=O)C(NC(=O)Cc1cccnc1)C(C)C)C(C)C` (centres unmarked) [Compound 95] ({Acetyl(3-pyridyl)}-VVL[Abu]-aldehyde; configuration not given here): 1 to 100 µM.
Still for that read-out and setting: next, `CCC(C=O)NC(=O)C(CC(C)C)NC(=O)C(NC(=O)C(NC(=O)CCN1CCCCC1)C(C)C)C(C)C` (centres unmarked) [Compound 97] (X8-VVL[Abu]-aldehyde; configuration not given here): 1 to 100 µM; `CCC(NC(=O)C(CC(C)C)NC(=O)C(NC(=O)C(NC(=O)C(CC(=O)O)NC(=O)C(CCC(=O)O)NC(C)=O)C(C)C)C(C)C)C(=O)C(=O)O` (centres unmarked) [Compound 101] (Ac-EDVVL-{ξ(3-Amino-2-oxopentanoyl)}; configuration not given here): less than 1 µM.
Regarding `CCC(NC(=O)C(CC(C)C)NC(=O)C(NC(=O)C(NC(=O)C(CC(=O)O)NC(=O)C(CCC(=O)O)NC(C)=O)C(C)C)C(C)C)C(=O)C(=O)NCc1ccccc1` (centres unmarked) [Compound 102] (Ac-EDVVL[ξ(3-Amino-2-oxopentanoyl)]-NHBn; configuration not given here), the Ki under setting [1] is less than 1 µM.
On the same count and under the same terms, next, `CCC(NC(=O)C(CC(C)C)NC(=O)C(NC(=O)C(NC(=O)C(CC(=O)O)NC(=O)C(CCC(=O)O)NC(C)=O)C(C)C)C(C)C)C(=O)C(=O)NCc1ccccc1OC` (centres unmarked) [Compound 103] (Ac-EDVVL[ξ(3-Amino-2-oxopentanoyl)]-X13; configuration not given here): less than 1 µM; `CCC(NC(=O)C(CC(C)C)NC(=O)C(NC(=O)C(NC(=O)C(CC(=O)O)NC(=O)C(CCC(=O)O)NC(C)=O)C(C)C)C(C)C)C(=O)C(=O)NCCc1ccccc1` (centres unmarked) [Compound 104] (Ac-EDVVL[ξ(3-Amino-2-oxopentanoyl)]-NHPhenethyl; configuration not given here): less than 1 µM; `CCCNC(=O)C(=O)C(CC)NC(=O)C(CC(C)C)NC(=O)C(NC(=O)C(NC(=O)C(CC(=O)O)NC(=O)C(CCC(=O)O)NC(C)=O)C(C)C)C(C)C` (centres unmarked) [Compound 105] (Ac-EDVVL[ξ(3-Amino-2-oxopentanoyl)]-NHPr; configuration not given here): less than 1 µM.
In the case of `CCC(NC(=O)C(CC(C)C)NC(=O)C(NC(=O)C(NC(=O)C(CC(=O)O)NC(=O)C(CCC(=O)O)NC(C)=O)C(C)C)C(C)C)C(=O)C(=O)NC(C)COC` (centres unmarked) [Compound 106] (Ac-EDVVL[ξ(3-Amino-2-oxopentanoyl)]-X37; configuration not given here), the Ki under setting [1] was less than 1 µM.
Still for that read-out and setting: next, `CCC(NC(=O)C(CC(C)C)NC(=O)C(NC(=O)C(NC(=O)C(CC(=O)O)NC(=O)C(CCC(=O)O)NC(C)=O)C(C)C)C(C)C)C(=O)C(=O)NCc1ccncc1` (centres unmarked) [Compound 107] (Ac-EDVVL[ξ(3-Amino-2-oxopentanoyl)]-{NH(4-picolyl)}; configuration not given here): less than 1 µM; `CCC(NC(=O)C(CC(C)C)NC(=O)C(NC(=O)C(NC(=O)C(CC(=O)O)NC(=O)C(CCC(=O)O)NC(C)=O)C(C)C)C(C)C)C(=O)C(=O)NCC1CCCO1` (centres unmarked) [Compound 108] (Ac-EDVVL[ξ(3-Amino-2-oxopentanoyl)]-X16; configuration not given here): less than 1 µM; `CCC(NC(=O)C(CC(C)C)NC(=O)C(NC(=O)C(NC(=O)C(CC(=O)O)NC(=O)C(CCC(=O)O)NC(C)=O)C(C)C)C(C)C)C(=O)C(=O)N1CCOCC1` (centres unmarked) [Compound 109] (Ac-EDVVL[ξ(3-Amino-2-oxopentanoyl)]-Morpholide; configuration not given here): 1 to 100 µM.
On the same count and under the same terms, next, `CCC(NC(=O)C(CC(C)C)NC(=O)C(NC(=O)C(NC(=O)c1cnccn1)C(C)C)C(C)C)C(=O)C(=O)NCc1ccccc1` (centres unmarked) [Compound 112]: 1 to 100 µM; `CCC(NC(=O)C(CC(C)C)NC(=O)C(NC(=O)C(NC(=O)c1cnccn1)C(C)C)C(C)C)C(=O)C(=O)NCCc1ccc(OCc2ccccc2)c(OCc2ccccc2)c1` (centres unmarked) [Compound 113]: 1 to 100 µM; `CCC(NC(=O)C(CC(C)C)NC(=O)C(NC(=O)C(NC(=O)c1cnccn1)C(C)C)C(C)C)C(=O)C(=O)NCc1ccccc1OC` (centres unmarked) [Compound 114]: more than 100 µM.
Same read-out and setting: next, `CCC(NC(=O)C(CC(C)C)NC(=O)C(NC(=O)C(NC(=O)c1cnccn1)C(C)C)C(C)C)C(=O)C(=O)NCCc1ccccc1` (centres unmarked) [Compound 115]: 1 to 100 µM.
In the case of `CCC(NC(=O)C(CC(C)C)NC(=O)C(NC(=O)C(NC(=O)c1cnccn1)C(C)C)C(C)C)C(=O)C(=O)N[C@H](C)c1ccccc1` (some centres unmarked) [Compound 116], the inhibition constant (Ki) under setting [1] lay within 1 to 100 µM.
On the same count and under the same terms, with `CCC(NC(=O)C(CC(C)C)NC(=O)C(NC(=O)C(NC(=O)c1cnccn1)C(C)C)C(C)C)C(=O)C(=O)N[C@@H](C)c1ccccc1` (some centres unmarked) [Compound 117] the figure was 1 to 100 µM; with `CCC(NC(=O)C(CC(C)C)NC(=O)C(NC(=O)C(NC(=O)c1cnccn1)C(C)C)C(C)C)C(=O)C(=O)Nc1ccccc1` (centres unmarked) [Compound 119], more than 100 µM.
For the molecule `CCC(NC(=O)C(CC(C)C)NC(=O)C(NC(=O)C(NC(=O)c1cnccn1)C(C)C)C(C)C)C(=O)C(=O)N[C@H](CC)c1ccccc1` (some centres unmarked) [Compound 120], the Ki lay in the range of 1 to 100 µM.
Same read-out and setting: next, `CCC(NC(=O)C(CC(C)C)NC(=O)C(NC(=O)C(NC(=O)c1cnccn1)C(C)C)C(C)C)C(=O)C(=O)N[C@@H](CC)c1ccccc1` (some centres unmarked) [Compound 121]: more than 100 µM.
On to `CCC(NC(=O)C(CC(C)C)NC(=O)C(NC(=O)C(NC(=O)c1cnccn1)C(C)C)C(C)C)C(=O)C(=O)N(CC)CC` (centres unmarked) [Compound 122], for which the Ki under setting [1] was more than 100 µM.
Same read-out and setting: next, `CCC(NC(=O)C(CC(C)C)NC(=O)C(NC(=O)C(NC(=O)c1cnccn1)C(C)C)C(C)C)C(=O)C(=O)NCC(C)OC` (centres unmarked) [Compound 123]: 1 to 100 µM; `CCC(NC(=O)C(CC(C)C)NC(=O)C(NC(=O)C(NC(=O)C(CC(=O)O)NC(=O)C(N)CCC(=O)O)C(C)C)C(C)C)C(=O)c1nc2ccccc2o1` (centres unmarked) [Compound 124] (H-EDVVL-X41; configuration not given here): 1 to 100 µM.
